Where two headings read alike, the source gives them in different places.
How the values were obtained:
[1] = test system: MTAP-deleted cell line; assay: viability assay for the MTAP-deleted cell line; assay type: cell-based
[2] = test system: HAP1 MTAP-intact cell line; assay: SDMA in-cell western assay, HAP1 MTAP-intact
[3] = test system: HAP1 MTAP-deleted cell line; assay: SDMA in-cell western assay, HAP1 MTAP-deleted; details: for Hap1 MTAP intact/deleted ratio: IC50 ratio between HAP1 MTAP-intact and HAP1 MTAP-deleted cell line
[4] = Homo sapiens, HAP1, viability assay
[5] = Homo sapiens, HAP1, read-out: Hap1 MTAP intact IC50, SDMA in-cell western, HAP1 MTAP-intact cell line
[6] = Homo sapiens, HAP1, read-out: Hap1 MTAP deleted IC50, SDMA in-cell western, HAP1 MTAP-deleted cell line
[7] = Homo sapiens, HAP1, read-out: Hap1 MTAP deleted IC90, SDMA in-cell western, HAP1 MTAP-deleted cell line
[8] = Homo sapiens, HAP1, read-out: Hap1 MTAP intact IC50, SDMA in-cell western assay, HAP1 MTAP-intact cell line
[9] = Homo sapiens, HAP1, read-out: Hap1 MTAP deleted IC50, SDMA in-cell western assay, HAP1 MTAP-deleted cell line
[10] = Homo sapiens, HAP1, read-out: Hap1 MTAP deleted IC90, SDMA in-cell western assay, HAP1 MTAP-deleted cell line

Structure (SMILES) | IC50 [1, 4] [nM] | IC50 [2, 5] [nM] | IC50 [3, 6] [nM] | IC90 [3, 7] [nM] | Hap1 MTAP intact/deleted ratio ([3]; SDMA in-cell western) | IC50 [2, 8] [nM] | IC50 [3, 9] [nM] | IC90 [3, 10] [nM] | Hap1 MTAP intact/deleted ratio ([3]; SDMA in-cell western assay) | IC50 ([2]; Homo sapiens, HAP1, read-out: Hap1 MTAP intact IC50) [nM] | IC50 ([1]; viability assay, read-out: Hap1 MTAP deleted viability IC50) [nM] | IC50 ([2]; read-out: Hap1 MTAP intact IC50, SDMA in-cell western, HAP1 MTAP-intact cell line) [nM] | IC50 ([3]; read-out: Hap1 MTAP deleted IC50, SDMA in-cell western, HAP1 MTAP-deleted cell line) [nM] | IC90 ([3]; read-out: Hap1 MTAP deleted IC90, SDMA in-cell western, HAP1 MTAP-deleted cell line) [nM]
CC(CN(C)C)c1nc2cc([C@H]3CC[C@H](C)CN3C(=O)C(=O)Nc3cncc4cn[nH]c34)ccc2s1 (stereo partly drawn) [Compound 21, 2-((2R,5S)-2-(2-(1-(dimethylamino)propan-2-yl)benzo[d]thiazol-5-yl)-5-methylpiperidin-1-yl)-2-oxo-N-(1H-pyrazolo[4,3-c]pyridin-7-yl)acetamide] | < 100 | 5 to 50 | < 5 | < 75 | C (“C” indicates an IC50 ratio of less than 15 fold) |  |  |  |  |  |  |  |  | 
C[C@H]1CC[C@H](c2ccc3sc(CC(C)(C)N(C)C)nc3c2)N(C(=O)C(=O)Nc2cncc3cn[nH]c23)C1 [Compound 122, 2-((2R,5S)-2-(2-(2-(dimethylamino)-2-methylpropyl)benzo[d]thiazol-5-yl)-5-methylpiperidin-1-yl)-2-oxo-N-(1H-pyrazolo[4,3-c]pyridin-7-yl)acetamide] | < 100 | > 50 | < 5 | < 75 | A (“A” indicates an IC50 ratio greater than or equal to 30 fold) |  |  |  |  |  |  |  |  | 
C[C@H]1CC[C@H](c2ccc3sc(C4CCOCC4)nc3c2)N(C(=O)C(=O)Nc2cnc(N)c3cn[nH]c23)C1 [Compound 143, N-(4-amino-1H-pyrazolo[4,3-c]pyridin-7-yl)-2-((2R,5S)-5-methyl-2-(2-(tetrahydro-2H-pyran-4-yl)benzo[d]thiazol-5-yl)piperidin-1-yl)-2-oxoacetamide] | < 100 | 5 to 50 | < 5 | < 75 | C (“C” indicates an IC50 ratio of less than 15 fold) |  |  |  |  |  |  |  |  | 
C[C@H]1CC[C@H](c2ccc3sc(C4=CCN(C)CC4)nc3c2)N(C(=O)C(=O)Nc2cncc3cn[nH]c23)C1 [Compound 182, 2-((2R,5S)-5-methyl-2-(2-(1-methyl-1,2,3,6-tetrahydropyridin-4-yl)benzo[d]thiazol-5-yl)piperidin-1-yl)-2-oxo-N-(1H-pyrazolo[4,3-c]pyridin-7-yl)acetamide] | < 100 | > 50 | < 5 | < 75 | A (“A” indicates an IC50 ratio greater than or equal to 30 fold) |  |  |  |  |  |  |  |  | 
C[C@H]1CC[C@H](c2ccc3sc([C@@H]4CCN(C)C[C@@H]4C)nc3c2)N(C(=O)C(=O)Nc2cncc3cn[nH]c23)C1 (relative stereo) [Compound 12, 2-oxo-N-(1H-pyrazolo[4,3-c]pyridin-7-yl)-2-[(2R,5S)-5-methyl-2-[2-[rel-(3R,4R)-1,3-dimethyl-4-piperidyl]-1,3-benzothiazol-5-yl]-1-piperidyl]acetamide] | < 100 | > 50 | < 5 | < 75 | B (“B” indicates an IC50 ratio greater than or equal to 15 fold but lower than 30 fold) |  |  |  |  |  |  |  |  | 
C[C@H]1CC[C@H](c2cccc(N3CCN(C)CC3)c2)N(C(=O)C(=O)Nc2cnc(N)c3cn[nH]c23)C1 [Compound 25, N-(4-amino-1H-pyrazolo[4,3-c]pyridin-7-yl)-2-((2R,5S)-5-methyl-2-(3-(4-methylpiperazin-1-yl)phenyl)piperidin-1-yl)-2-oxoacetamide] | < 100 | 5 to 50 | < 5 | < 75 | C (“C” indicates an IC50 ratio of less than 15 fold) |  |  |  |  |  |  |  |  | 
C[C@@H]1C[C@@H](c2nc3cc([C@H]4CC[C@H](C)CN4C(=O)C(=O)Nc4cncc5cn[nH]c45)ccc3s2)CN(C)C1 (single isomer, unassigned) [Compound 171] | < 100 | > 50 | < 5 | < 75 | B (“B” indicates an IC50 ratio greater than or equal to 15 fold but lower than 30 fold) |  |  |  |  |  |  |  |  | 
CCOc1cc([C@@H]2CC[C@H](C)CN2C(=O)C(=O)Nc2cnc(N)c3cn[nH]c23)ccn1 [Compound 275] | 100 to 1000 |  |  |  |  | > 50 | 5 to 50 | > 125 | C (“C” indicates an IC50 ratio of less than 15 fold) |  |  |  |  | 
C[C@H]1CC[C@H](c2ccc3nn([C@H]4CCN(C)C4)cc3c2)N(C(=O)C(=O)Nc2cncc3cn[nH]c23)C1 [Compound 104, 2-oxo-N-(1H-pyrazolo[4,3-c]pyridin-7-yl)-2-[(2R,5S)-5-methyl-2-[2-[(3S)-1-methylpyrrolidin-3-yl]indazol-5-yl]-1-piperidyl]acetamide] | 100 to 1000 | > 50 | 5 to 50 | 75 to 125 | A (“A” indicates an IC50 ratio greater than or equal to 30 fold) |  |  |  |  |  |  |  |  | 
C[C@H]1CC[C@H](c2ccc(F)c(Cl)c2)N(C(=O)C(=O)Nc2cnc(N)c3cn[nH]c23)C1 (racemic) [Compound 184, N-(4-amino-1H-pyrazolo[4,3-c]pyridin-7-yl)-2-(rac-(2S,5R)-2-(3-chloro-4-fluorophenyl)-5-methylpiperidin-1-yl)-2-oxoacetamide] | < 100 | > 50 | < 5 | < 75 | A (“A” indicates an IC50 ratio greater than or equal to 30 fold) |  |  |  |  |  |  |  |  | 
C[C@H]1CC[C@H](c2cccc(OC[C@H](C)N(C)C)c2)N(C(=O)C(=O)Nc2cnc(N)c3cn[nH]c23)C1 [Compound 164, N-(4-amino-1H-pyrazolo[4,3-c]pyridin-7-yl)-2-((2R,5S)-2-(3-((S)-2-(dimethylamino)propoxy)phenyl)-5-methylpiperidin-1-yl)-2-oxoacetamide] | < 100 | 5 to 50 | < 5 | < 75 | C (“C” indicates an IC50 ratio of less than 15 fold) |  |  |  |  |  |  |  |  | 
C[C@H]1CC[C@H](c2ccc3sc(C4CCC(N(C)C)CC4)nc3c2)N(C(=O)C(=O)Nc2cnc(N)c3cn[nH]c23)C1 (mixture of isomers) [Compound 212, N-(4-Amino-1H-pyrazolo[4,3-c]pyridin-7-yl)-2-oxo-2-[rac-(2R,5S)-2-[2-[4-(dimethylamino)cyclohexyl]-1,3-benzothiazol-5-yl]-5-methyl-1-piperidyl]acetamide] | < 100 |  |  |  |  | 5 to 50 | < 5 | < 75 | C (“C” indicates an IC50 ratio of less than 15 fold) |  |  |  |  | 
C[C@H]1CC[C@H](c2cccc3c2CCO3)N(C(=O)C(=O)Nc2cnc(N)c3cn[nH]c23)C1 (racemic) [Compound 282, N-(4-Amino-1H-pyrazolo[4,3-c]pyridin-7-yl)-2-oxo-2-[rac-(2R,5S)-2-(2,3-dihydrobenzofuran-4-yl)-5-methyl-1-piperidyl]acetamide] | < 100 |  |  |  |  | 5 to 50 | < 5 | < 75 | A (“A” indicates an IC50 ratio greater than or equal to 30 fold) |  |  |  |  | 
C[C@H]1CC[C@H](c2ccc3scnc3c2)N(C(=O)C(=O)Nc2cnc(N)c3c2cnn3C)C1 [Compound 199, N-(7-Amino-1-methyl-pyrazolo[3,4-c]pyridin-4-yl)-2-oxo-2-[(2R,5S)-2-(1,3-benzothiazol-5-yl)-5-methyl-1-piperidyl]acetamide] | < 100 |  |  |  |  |  | < 5 | < 75 | C (“C” indicates an IC50 ratio of less than 15 fold) | 5 to 50 |  |  |  | 
C[C@H]1CC[C@H](c2ccc3nn(C4CCN(C)C(C)(C)C4)cc3c2)N(C(=O)C(=O)Nc2cncc3cn[nH]c23)C1 (single isomer, unassigned) [Compound 20] |  |  |  |  | C (“C” indicates an IC50 ratio of less than 15 fold) |  |  |  |  |  | < 100 | 5 to 50 | < 5 | < 75
C[C@H]1CC[C@H](c2ccccc2)N(C(=O)C(=O)Nc2cnc(N)c3c2OCC3)C1 [Compound 214] | 100 to 1000 |  |  |  |  | > 50 | 5 to 50 | > 125 | B (“B” indicates an IC50 ratio greater than or equal to 15 fold but lower than 30 fold) |  |  |  |  | 
C[C@H]1CC[C@H](c2ccc3cn(C4CCN(C)CC4)nc3c2)N(C(=O)C(=O)Nc2cncc3cn[nH]c23)C1 [Compound 90, 2-oxo-N-(1H-pyrazolo[4,3-c]pyridin-7-yl)-2-[(2R,5S)-5-methyl-2-[2-(1-methyl-4-piperidyl)indazol-6-yl]-1-piperidyl]acetamide] | < 100 | 5 to 50 | < 5 | < 75 | B (“B” indicates an IC50 ratio greater than or equal to 15 fold but lower than 30 fold) |  |  |  |  |  |  |  |  | 
C[C@H]1CC[C@H](c2ccc3sc(C4CN(C)C4)nc3c2)N(C(=O)C(=O)Nc2cncc3cn[nH]c23)C1 [Compound 62, 2-((2R,5S)-5-methyl-2-(2-(1-methylazetidin-3-yl)benzo[d]thiazol-5-yl)piperidin-1-yl)-2-oxo-N-(1H-pyrazolo[4,3-c]pyridin-7-yl)acetamide] | < 100 | 5 to 50 | < 5 | < 75 | B (“B” indicates an IC50 ratio greater than or equal to 15 fold but lower than 30 fold) |  |  |  |  |  |  |  |  | 

Source: patent US20250163048A1 (Tango Therapeutics, Inc., priority 2022, published 2025)
